Results: patent US11149033B2, “Heteroaryl compound, enantiomer, diastereomer or pharmaceutically acceptable salt thereof, and antiviral composition containing same as active ingredient” (priority 2016, dated 2021)
Like-named read-outs stand apart in the source and are kept apart here.

Key:
[1] = system: B/Florida/04/2006; experiment: Antiviral activity (drug efficacy evaluation by concentration) against B/Florida/04/2006; format: cell-based, B type influenza virus
[2] = system: A/California/07/2009 (H1N1); experiment: Antiviral activity (drug efficacy evaluation by concentration) against A/California/07/2009 (H1N1); format: cell-based, A type influenza virus; settings: Influenza A virus
[3] = system: A/Perth/16/2009 (H3N2); experiment: Antiviral activity (drug efficacy evaluation by concentration) against A/Perth/16/2009 (H3N2); format: cell-based, A type influenza virus; settings: Influenza A virus
[4] = in vitro
[5] = read-out: EC50 B/Florida/04/2006, B/Florida/04/2006
[6] = H1N1, A/California/07/2009 (H1N1), read-out: EC50 A/California/07/2009 (H1N1)
[7] = H3N2, A/Perth/16/2009 (H3N2), read-out: EC50 A/Perth/16/2009 (H3N2)
[8] = CC50 B/Florida/04/2006, cytotoxicity in the B/Florida/04/2006 assay
[9] = CC50, third EC50/CC50 column pair (c7), beside the EC50 of c6

Row | Compound | EC50 [1, 5] | EC50 [2, 6] | EC50 [3, 7] | CC50 [4, 8] | melting point | EC50 [1] | CC50 ([4]; CC50, beside the EC50 of c2) | CC50 ([4]; CC50, beside the EC50 of c4) | CC50 [4, 9] | EC50 ([2]; H1N1, read-out: EC50) | EC50 ([3]; H3N2, read-out: EC50)
1 | Cc1nn(Cc2nnc(SCc3ccccc3-c3ccccc3)o2)c(C)c1Br [Compound 1, 2-(([1,1′-biphenyl]-2-ylmethyl)thio)-5-((4-bromo-3,5-dimethyl-1H-pyrazol-1-yl)methyl)-1,3,4-oxadiazole] | 0.98 µM | 0.77 µM | 1.15 µM | 41.3 µM |  |  |  |  |  |  | 
2 | Brc1cnn(Cc2nnc(SCc3ccccc3-c3ccccc3)o2)c1 [Compound 3, 2-(([1,1′-biphenyl]-2-ylmethyl)thio)-5-((4-bromo-1H-pyrazol-1-yl)methyl)-1,3,4-oxadiazole] | 1.21 µM | 1.36 µM | 1.75 µM | > 50 µM |  |  |  |  |  |  | 
3 | c1ccc(-c2ccccc2CSc2nnc(Cn3cccn3)o2)cc1 [Compound 4, 2-((1H-pyrazol-1-yl)methyl)-5-(([1,1′-biphenyl]-2-ylmethyl)thio)-1,3,4-oxadiazole] | > 50 µM | > 50 µM | > 50 µM | > 50 µM |  |  |  |  |  |  | 
4 | Cc1cc(C)n(Cc2nnc(SCc3ccccc3-c3ccccc3)o2)n1 [Compound 5, 2-(([1,1′-biphenyl]-2-ylmethyl)thio)-5-((3,5-dimethyl-1H-pyrazol-1-yl)methyl)-1,3,4-oxadiazole] | 9.49 µM | 8.68 µM | 10.7 µM | > 50 µM |  |  |  |  |  |  | 
5 | Cc1nn(Cc2nnc(SCc3ccccc3-c3ccccc3)o2)c(C)c1Cl [Compound 7, 2-(([1,1′-biphenyl]-2-ylmethyl)thio)-5-((4-chloro-3,5-dimethyl-1H-pyrazol-1-yl)methyl)-1,3,4-oxadiazole] | 1.11 µM | 1.26 µM | 1.89 µM | > 50 µM |  |  |  |  |  |  | 
6 | Cc1ccccc1CSc1nnc(Cn2nc(C)c(Br)c2C)o1 [Compound 9, 2-((4-bromo-3,5-dimethyl-1H-pyrazol-1-yl)methyl)-5-((2-methylbenzyl)thio)-1,3,4-oxadiazole] | 4.7 µM | 4.2 µM | 5.55 µM | > 50 µM |  |  |  |  |  |  | 
7 | Brc1ccn(Cc2nnc(SCc3ccccc3-c3ccccc3)o2)n1 [Compound 11, 2-(([1,1′-biphenyl]-2-ylmethyl)thio)-5-((3-bromo-1H-pyrazol-1-yl)methyl)-1,3,4-oxadiazole] | 12.9 µM | 13.2 µM | 12.5 µM | > 50 µM |  |  |  |  |  |  | 
8 | Cc1nn(Cc2nnc(SCC(=O)c3ccccc3-c3ccccc3)o2)c(C)c1Br [Compound 13, 1-([1,1′-biphenyl]-2-yl)-2-((5-((4-bromo-3,5-dimethyl-1H-pyrazol-1-yl)methyl)-1,3,4-oxadiazol-2-yl)thio)ethan-1-on] | 42.5 µM | > 50 µM | > 50 µM | > 50 µM |  |  |  |  |  |  | 
9 | Cc1nn(Cc2nnc(SCc3ccccc3)o2)c(C)c1Br [Compound 14, 2-(benzylthio)-5-((4-bromo-3,5-dimethyl-1H-pyrazol-1-yl)methyl)-1,3,4-oxadiazole] | 16.4 µM | 18 µM | 20.5 µM | > 50 µM |  |  |  |  |  |  | 
10 | Cc1nn(Cc2nnc(NCc3ccccc3-c3ccccc3)o2)c(C)c1Br [Compound 17, N-([1,1′-biphenyl]-2-ylmethyl)-5-((4-bromo-3,5-dimethyl-1H-pyrazol-1-yl)methyl)-1,3,4-oxadiazol-2-amine] | 19 µM | 35.2 µM | 30 µM | 38.1 µM |  |  |  |  |  |  | 
11 | c1ccc(Cc2nnc(SCc3ccccc3-c3ccccc3)o2)cc1 [Compound 18, 2-(([1,1′-biphenyl]-2-ylmethyl)thio)-5-benzyl-1,3,4-oxadiazole] | 5.18 µM | 6.1 µM | 6.8 µM | > 50 µM |  |  |  |  |  |  | 
12 | Cc1nn(Cc2nnc(SCc3ccccc3-c3cccnc3)o2)c(C)c1Br [Compound 19, 2-((4-bromo-3,5-dimethyl-1H-pyrazol-1-yl)methyl)-5-((2-(pyridin-3-yl)benzyl)thio)-1,3,4-oxadiazole] | > 50 µM | > 50 µM | > 50 µM | > 50 µM |  |  |  |  |  |  | 
13 | Brc1ccc(Cc2nnc(SCc3ccccc3-c3ccccc3)o2)cc1 [Compound 22, 2-(([1,1′-biphenyl]-2-ylmethyl)thio)-5-(4-bromobenzyl)-1,3,4-oxadiazole] | 4.88 µM | 4.9 µM | 5 µM | > 50 µM |  |  |  |  |  |  | 
14 | Cc1nn(Cc2nnc(SCc3ccccc3C(C)C)o2)c(C)c1Br [Compound 23, 2-((4-bromo-3,5-dimethyl-1H-pyrazol-1-yl)methyl)-5-((2-isopropylbenzyl)thio)-1,3,4-oxadiazole] | 0.82 µM | 0.6 µM | 1.1 µM | 14.2 µM |  |  |  |  |  |  | 
15 | CCn1c(Cn2nc(C)c(Br)c2C)nnc1SCc1ccccc1-c1ccccc1 [Compound 24, 3-(([1,1′-biphenyl]-2-ylmethyl)thio)-5-((4-bromo-3,5-dimethyl-1H-pyrazol-1-yl)methyl)-4-ethyl-4H-1,2,4-triazole] | > 50 µM |  | > 50 µM | > 50 µM | 137.8 °C |  |  |  |  |  | 
16 | Cc1nn(Cc2nnc(SC(c3ccccc3)c3ccccc3)o2)c(C)c1Br [Compound 25, 2-(benzhydrylthio)-5-((4-bromo-3,5-dimethyl-1H-pyrazol-1-yl)methyl)-1,3,4-oxadiazole] | 5.18 µM | 2.5 µM | 2 µM | 9.4 µM |  |  |  |  |  |  | 
17 | Brc1ccc(NCc2nnc(SCc3ccccc3-c3ccccc3)o2)cc1 [Compound 47, N-((5-(([1,1′-biphenyl]-2-ylmethyl)thio)-1,3,4-oxadiazol-2-yl)methyl)-4-bromoaniline] | > 50 µM | > 50 µM |  | > 50 µM |  |  |  |  |  |  | 
18 | CC(C)c1ccccc1/C=C/c1nnc(Cc2ccc(Br)cc2)o1 [Compound 82, (E)-2-(4-bromobenzyl)-5-(2-isopropylstyryl)-1,3,4-oxadiazole] |  |  |  |  | 91.6 °C | > 50 µM | > 50 µM | > 50 µM | > 50 µM |  | 
19 | CC(C)c1ccccc1/C=C/c1nnc(Cc2ccc(F)c(Cl)c2)o1 [Compound 131, 2-(3-chloro-4-fluorobenzyl)-5-(2-isopropylstyryl)-1,3,4-oxadiazole] |  |  |  |  |  | 1.02 µM |  |  |  | 0.927 µM | 0.835 µM
20 | Cc1ccc(Cc2nnc(/C=C/c3ccccc3C(C)C)o2)cc1Br [Compound 145, 2-(3-bromo-4-methylbenzyl)-5-(2-isopropylstyryl)-1,3,4-oxadiazole] |  |  |  |  | 111.2 °C | > 50 µM | > 50 µM | > 50 µM | > 50 µM |  | 49.1 µM
21 | FC(F)(F)c1cccc(/C=C/c2nnc(Cc3ccc(Br)cc3)o2)c1Cl [Compound 152, 2-(4-bromobenzyl)-5-(2-chloro-3-(trifluoromethyl)styryl)-1,3,4-oxadiazole] |  |  |  |  | 118.9 °C | > 50 µM | > 50 µM | > 50 µM | > 50 µM |  | > 50 µM
22 | CC(C)c1ccc(/C=C/c2nnc(Cc3ccc(Br)cc3)o2)cc1 [Compound 154, 2-(4-bromobenzyl)-5-(4-isopropylstyryl)-1,3,4-oxadiazole] |  |  |  |  | 139.8 °C | > 50 µM | > 50 µM | > 50 µM | > 50 µM |  | 
23 | COc1cccc(Cc2nnc(/C=C/c3ccc(F)cc3Cl)o2)c1 [Compound 202, (E)-2-(2-chloro-4-fluorostyryl)-5-(3-methoxybenzyl)-1,3,4-oxadiazole] |  |  |  |  | 131.7 °C | > 50 µM | > 50 µM | > 50 µM | > 50 µM |  | > 50 µM
24 | Fc1ccc(/C=C/c2nnc(Cc3cc(Cl)ccn3)o2)c(Cl)c1 [Compound 206, (E)-2-(2-chloro-4-fluorostyryl)-5-((4-chloropyridin-2-yl)methyl)-1,3,4-oxadiazole] |  |  |  |  |  | 2.26 µM | > 50 µM | > 50 µM | > 50 µM |  | 1.28 µM
25 | Fc1ccc(/C=C/c2nnc(Cc3ccc(Cl)c(Cl)c3)o2)c(Cl)c1 [Compound 208, 2-(2-chloro-4-fluorostyryl)-5-(3,4-dichlorobenzyl)-1,3,4-oxadiazole] |  |  |  |  | 179.9 °C | 1.19 µM | > 50 µM | > 50 µM | > 50 µM |  | 0.72 µM
